Entries after “also recorded” stand apart in the source; their conditions may differ.

One assay has as its system E. coli in raw milk. The assay is described as follows: GelGreen raw milk treatment staining protocol, flow cytometry. In kind it is cell-based, Escherichia coli. The note with it: raw milk diluted in Tris-buffered saline pH 8.5, approximately 50 to 60° C. As to the method: To show how the FL1, FL2 signals look like in un-spiked raw milk, low bacterial count raw milk was analyzed. The locally obtained raw milk (generally from a farm) has a very low bacteria count ranging from 1000 to 50,000 CFU per mL. The staining composition comprising GelGreen™ as the nucleic acid dye was prepared in the same way as in Example 1, except that the protease Savinase® 16L (from Novozymes) was added in an amount of 1.92×10^3 NPU/ml, where NPU is “Novo Protease Unit which is the same as Anson unit (AU). […] The sample with the staining composition was incubated at approximately 50° C. for approximately 4 to 5 min; the sample was again sonicated for approximately 5 seconds and finally the sample was analyzed on the flow cytometer and the fluorescent signals from the bacteria were detected and a count per unit volume was determined.
A small volume of raw milk was processed and analyzed following this GelGreen™ raw milk treatment staining method protocol (FIG. 38). To show the FL1 and FL2 signals for spiked raw milk, a known number of E. coli were placed into a known volume of the same raw milk and kept at 4° C. until treated, stained and analyzed on the flow cytometer. The raw milk with E. coli was processed and analyzed using the same GelGreen™ raw milk treatment staining method protocol. […]

Assay [1] relates to bacteria in raw milk. The assay is described as follows: IBC in 24 h old raw bulk milk, staining composition with Savinase, flow cytometer. The class given is cell-based. As to conditions: 68° C., 1 minute. As to the method: To verify this method with Savinase®, locally obtained raw bulk tank milk from a dairy plant was collected. […] An amount of 200 μl bacterial culture is added to a 45 ml volume of 24 h old raw bulk milk and kept at 4° C. until analyzed. The staining composition comprising GelGreenTM as the nucleic acid dye was prepared in the same way as in Example 5, except that the Alcalase® protease was replaced by 0.12 KNPU/ml Savinase® […] protease (from Novozymes). 200 μl of unheated raw milk is diluted with the 1800 μl staining composition and incubated at approximately 68° C. for 1 minute; the sample is sonicated for 5 seconds at 40 kHz in the before and after the incubation step and analyzed on the flow cytometer; the fluorescent signals from the bacteria were detected and a count per unit volume was determined. Traditional plate counts were used to obtain a bacterial reference count. As used herein, the term “traditional plate counts”, refers to Petrifilm Aerobic Count Plates (AOAC Official Method 986.33). The LOG of individual bacterial count (IBC)/ml from 24 h raw milk in the flow cytometer is 5.61, the LOG of CFU/ml petrifilm is 4.83. The LOG of IBC from 24 h raw milk spiked with E. coli LOG in the flow cytometer is 6.48. The LOG of CFU/ml petrifilm is 6.69.

For assay [2], the system named is Listeria monocytogenes, Staphylococcus aureus, Bacillus cereus, Pseudomonas aeruginosa, Escherichia coil. The assay is described as follows: Validation of flow cytometry counts versus Petrifilm CFU in raw milk spiked with gram positive and gram negative bacteria. The class given is cell-based. As to conditions: raw milk with individual bacterial cultures. The text has this:
A selection of gram negative and gram positive bacteria were chosen to be placed into raw milk and processed and analyzed following the GelGreen™ raw milk treatment staining protocol as disclosed in example 2. The gram positive organisms selected were Listeria monocytogenes (Lm), Staphylococcus aureus (Sa), and Bacillus cereus (Bc). The gram negative organisms selected were Pseudomonas aeruginosa (Pa) and Escherichia coil (Ec). Different concentrations of each culture were placed into a sample of raw milk and kept at 4° C. until processed. Each sample of raw milk with an individual bacterial culture was processed and analyzed following the GelGreen™ protocol as described in example 2. Each sample of raw milk with an individual bacterial culture was appropriately diluted in Butterfield's PBS and 1 mL was plated on Petrifilms in duplicate and CFU/mL were obtained. The resulting Log FCM counts per mL were plotted against the Log Petrifilm CFU per mL.

Assay [3] deals with bacteria in raw milk. Briefly: IBC in raw milk samples at different temperature settings, flow cytometer. In kind it is cell-based. As to the method:
The nucleic acid dyes, Evagreen®, SYTOX® Green and Propidium iodide where tested against GelGreen™ (the reference method). […] Nucleic acid dyes Evagreen®, SYTOX® Green and propidium iodide were tested using the same staining and incubation conditions as for the reference method only differing in the type of dye comprised in the staining composition. Evagreen® was used at a concentration of 1.25 μM in the staining composition. SYTOX® Green and Propidium iodide were used at a concentration of 5 μM in the staining composition. Three different types of milk were used: Locally obtained raw bulk tank milk from a farm and dairy plant where collected at a local farmer. This milk is referred to as fresh raw milk and is not older than 24 hours. 24 hour and 48 hour old milk were obtained from a dairy plant. […] For this purpose E. coli was grown overnight (approx. 15 h) in TSB at 32° C. The dead bacterial where obtained by heating the grown E. coli at 110° C. for 10 minutes. […] All the milk samples are kept at 4° C. until analyzed. […] Finally, the samples were analyzed on the flow cytometer and the fluorescent signals from the bacteria were detected and a count per unit volume was determined. […]
From example 5 it is already clear that temperatures lower than the optimal settings result in decreased DNA staining and so bacteria counting performance. […] Milk samples were kept at 4° C. until analyzed. […]

As to `CN(C)c1ccc2cc3ccc(N(C)C)cc3[n+](CCCCCC(=O)NCCCOCCOCCOCCCNC(=O)CCCCC[n+]3c4cc(N(C)C)ccc4cc4ccc(N(C)C)cc43)c2c1.[I-].[I-]` [GelGreen™], in the assay on E. coli in raw milk, the “staining of bacterial cells in raw milk” value was “clear population of E. coli was identified; also recorded: bacterial cells being stained”. Also, in the assay on bacteria in raw milk [1] (24 h raw milk spiked with E. coli), the “LOG of IBC in the flow cytometer” value turned out to be 6.48. Besides, in the assay on bacteria in raw milk [1] (24 h raw milk), the “LOG of individual bacterial count (IBC)/ml in the flow cytometer” value is 5.61. Moreover, in assay [2], the “relationship of Log FCM counts per mL versus Log Petrifilm CFU per mL” value is given as “overall linear relationship”. The “IBC compared to the 68° C. based reference method” value in the assay with bacteria in raw milk [3] (40° C., fresh spiked milk) is “way too low”; with bacteria in raw milk [3] (90° C., all the samples), “slightly higher”.

For the origin of these results see patent publication US11415493B2, “Detection of cells in a liquid sample” (DELTA INSTRUMENTS B.V., priority 2016, dated 2022).
